In one test the target is T1, FLT3D835Y kinase (Homo sapiens, UniProt P36888, D835Y).
T1 sequence (P36888 27-993 D835Y): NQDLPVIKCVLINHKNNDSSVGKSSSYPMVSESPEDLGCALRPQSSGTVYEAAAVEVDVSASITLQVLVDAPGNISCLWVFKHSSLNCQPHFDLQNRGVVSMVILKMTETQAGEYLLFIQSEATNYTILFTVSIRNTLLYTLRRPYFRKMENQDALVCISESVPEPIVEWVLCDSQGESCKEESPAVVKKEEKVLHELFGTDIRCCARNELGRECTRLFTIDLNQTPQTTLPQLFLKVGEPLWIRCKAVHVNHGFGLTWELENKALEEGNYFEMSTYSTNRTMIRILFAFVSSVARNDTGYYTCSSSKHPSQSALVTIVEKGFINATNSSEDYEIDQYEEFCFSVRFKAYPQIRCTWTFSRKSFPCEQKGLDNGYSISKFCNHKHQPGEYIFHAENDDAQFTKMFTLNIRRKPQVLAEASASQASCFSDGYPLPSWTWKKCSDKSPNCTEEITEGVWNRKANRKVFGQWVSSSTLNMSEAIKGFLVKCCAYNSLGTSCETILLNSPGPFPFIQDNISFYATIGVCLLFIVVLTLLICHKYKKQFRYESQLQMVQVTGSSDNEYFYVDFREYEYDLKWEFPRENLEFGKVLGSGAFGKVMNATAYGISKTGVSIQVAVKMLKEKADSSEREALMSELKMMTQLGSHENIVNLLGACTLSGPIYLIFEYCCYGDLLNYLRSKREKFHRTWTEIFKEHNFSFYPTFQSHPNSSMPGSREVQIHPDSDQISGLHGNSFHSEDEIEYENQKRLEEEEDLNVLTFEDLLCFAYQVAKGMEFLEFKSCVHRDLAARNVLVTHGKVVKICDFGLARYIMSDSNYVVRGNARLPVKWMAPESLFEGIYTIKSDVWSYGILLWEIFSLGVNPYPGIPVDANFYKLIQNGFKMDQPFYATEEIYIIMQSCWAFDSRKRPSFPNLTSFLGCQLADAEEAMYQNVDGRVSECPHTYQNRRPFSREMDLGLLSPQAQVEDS
Briefly: FLT3D835Y kinase inhibition assay (LanthaScreen TR-FRET). Conditions: read-out: FLT3 IC50. Type of test: biochemical. The method, boiled down:
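TR-FRET with 5.7 nM FLT3D835Y, 50 nM polyEAY substrate, 2 μM ATP (f.c.), 3 mM Mg and 3 mM Mn in 50 mM TRIS-HCl pH 7.4 with DTT, Tween 20 and Na3VO4. Reaction 1 h, stopped with EDTA, then Tb-labeled P-20 antibody for 45 min; single end-point reading.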
On the technique in general: Time-resolved FRET reads energy transfer from a long-lived donor to a nearby acceptor.

The subject of test [1] is KMS11 (human myeloma cell line). Briefly: Cell proliferation assay (CellTiter-Glo), KMS11. Type of test: cell-based. Conditions: Homo sapiens, KMS-11; KMS11 cells, cell proliferation; read-out: KMS11-Luc EC50. Put shortly: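 EC50 derived from CellTiter-Glo luminescence after 3-day exposure at 37° C. Compound was diluted to 2× in medium and added to an equal volume of cells. KMS11 myeloma cells were plated on assay day at 2000/well in IMDM with 10% FBS and sodium pyruvate.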
Background: Cellular ATP, detected with luciferase, serves as a proxy for viable cell number.

The target of a further test is GSK3β (Homo sapiens, UniProt P49841). Briefly: GSK3β ATP depletion assay. Type of test: biochemical. Conditions: ATP depletion assay; read-out: GSK3b IC50. The method, boiled down: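 Kinase activity is read as ATP consumption: luciferase luminescence reports the ATP remaining once roughly half of the 2 μM ATP is used. Reaction mix: 5 nM GSK3β, 10 μM b-CREB peptide, 50 mM Tris pH 7.5, 15 mM MgCl2, 1 mM DTT, 0.1% BSA, 2.5% DMSO. Enzyme and peptide are preincubated 15 min before ATP is added.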
Chain of GSK3β (P49841 whole entry, species assumed): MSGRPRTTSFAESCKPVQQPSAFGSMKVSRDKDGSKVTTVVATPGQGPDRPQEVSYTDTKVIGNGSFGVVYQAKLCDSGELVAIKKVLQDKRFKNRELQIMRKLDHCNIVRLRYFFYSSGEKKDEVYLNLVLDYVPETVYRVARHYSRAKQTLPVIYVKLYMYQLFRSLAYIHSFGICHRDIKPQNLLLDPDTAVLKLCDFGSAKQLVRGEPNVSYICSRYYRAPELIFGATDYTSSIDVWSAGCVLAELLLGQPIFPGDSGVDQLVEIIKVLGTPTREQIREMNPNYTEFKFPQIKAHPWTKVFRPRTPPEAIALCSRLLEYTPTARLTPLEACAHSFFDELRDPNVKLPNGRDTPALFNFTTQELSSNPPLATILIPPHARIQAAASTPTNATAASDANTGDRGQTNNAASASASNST

For `C[C@]1(O)[C@H](N)C[C@H](c2ccncc2NC(=O)c2nc(-c3ccccc3)cnc2N)O[C@@H]1C1CC1` [Example 344, 3-amino-N-(4-((2R,4R,5S,6R)-4-amino-6-cyclopropyl-5-hydroxy-5-methyltetrahydro-2H-pyran-2-yl)pyridin-3-yl)-6-phenylpyrazine-2-carboxamide], the IC50 amounted to 10 nM on FLT3D835Y kinase and 29 nM on GSK3β. Moreover, the concentration giving a half-maximal response (EC50) in test [1] turned out to be 870 nM.

Consider `CC[C@@H]1O[C@H](c2ccncc2NC(=O)c2nc(-c3ccccc3)cnc2N)C[C@H](N)[C@@]1(C)O` [Example 345, 3-amino-N-(4-((2S,4S,5R,6S)-4-amino-6-ethyl-5-hydroxy-5-methyltetrahydro-2H-pyran-2-yl)pyridin-3-yl)-6-phenylpyrazine-2-carboxamide], for which the IC50 turned out to be 920 nM at FLT3D835Y kinase and 370 nM at GSK3β. Moreover, the EC50 in test [1] was found to be 3170 nM.

As for `Nc1ncc(-c2ccccc2)nc1C(=O)Nc1cnccc1[C@H]1C[C@@H](N)[C@H](O)[C@@H](C2CC2)O1` [Example 346, 3-amino-N-(4-((2R,4R,5S,6R)-4-amino-6-cyclopropyl-5-hydroxytetrahydro-2H-pyran-2-yl)pyridin-3-yl)-6-phenylpyrazine-2-carboxamide], the IC50 on FLT3D835Y kinase is 8.5 nM; at GSK3β, 9.2 nM. Besides, in test [1], the EC50 worked out at 470 nM.

For the compound `C[C@@]1(O)[C@@H](N)C[C@@H](c2ccncc2NC(=O)c2nc(-c3ccccc3)cnc2N)O[C@H]1C1CC1` [Example 347, 3-amino-N-(4-((2S,4S,5R,6S)-4-amino-6-cyclopropyl-5-hydroxy-5-methyltetrahydro-2H-pyran-2-yl)pyridin-3-yl)-6-phenylpyrazine-2-carboxamide], the IC50 was determined as 770 nM on FLT3D835Y kinase and 570 nM at GSK3β. Further, in test [1], the EC50 was found to be 2430 nM.

As for `CC[C@H]1O[C@@H](c2ccncc2NC(=O)c2nc(-c3ccccc3)cnc2N)C[C@@H](N)[C@]1(C)O` [Example 348, 3-amino-N-(4-((2R,4R,5S,6R)-4-amino-6-ethyl-5-hydroxy-5-methyltetrahydro-2H-pyran-2-yl)pyridin-3-yl)-6-phenylpyrazine-2-carboxamide], the IC50 was 17 nM at FLT3D835Y kinase and 120 nM on GSK3β. In addition, in test [1], the EC50 stood at 1190 nM.

As to `Nc1ncc(-c2ccccc2)nc1C(=O)Nc1cnccc1[C@@H]1C[C@H](N)[C@@H](O)[C@H](C2CC2)O1` [Example 349, 3-amino-N-(4-((2S,4S,5R,6S)-4-amino-6-cyclopropyl-5-hydroxytetrahydro-2H-pyran-2-yl)pyridin-3-yl)-6-phenylpyrazine-2-carboxamide], the IC50 was determined as 250 nM at FLT3D835Y kinase and 100 nM on GSK3β. In test [1], the EC50 was determined as 540 nM.

`CC(C)(C)[C@H]1O[C@@H](c2ccncc2NC(=O)c2nc(-c3ccccc3)cnc2N)C[C@@H](N)[C@@H]1O` [Example 354, 3-amino-N-(4-((2R,4R,5S,6R)-4-amino-6-tert-butyl-5-hydroxytetrahydro-2H-pyran-2-yl)pyridin-3-yl)-6-phenylpyrazine-2-carboxamide]: the IC50 at FLT3D835Y kinase was found to be 3.1 nM; on GSK3β it was 3.2 nM. In test [1], the EC50 was 140 nM.

Consider `CC(C)(C)[C@@H]1O[C@H](c2ccncc2NC(=O)c2nc(-c3ccccc3)cnc2N)C[C@H](N)[C@H]1O` [Example 355, 3-amino-N-(4-((2S,4S,5R,6S)-4-amino-6-tert-butyl-5-hydroxytetrahydro-2H-pyran-2-yl)pyridin-3-yl)-6-phenylpyrazine-2-carboxamide], for which the figures for the IC50 on FLT3D835Y kinase and on GSK3β were 2600 nM and 170 nM, respectively. The concentration giving a half-maximal response (EC50) in test [1] turned out to be 210 nM.

With `CC(C)[C@H]1O[C@@H](c2ccncc2NC(=O)c2nc(-c3ccccc3)cnc2N)C[C@@H](N)[C@@H]1O` [Example 356, 3-amino-N-(4-((2R,4R,5S,6R)-4-amino-5-hydroxy-6-isopropyltetrahydro-2H-pyran-2-yl)pyridin-3-yl)-6-phenylpyrazine-2-carboxamide], the half-maximal inhibitory concentration (IC50) on FLT3D835Y kinase came out at 5.8 nM; at GSK3β it was 8.6 nM. Moreover, the EC50 in test [1] amounted to 180 nM.

The term IC50 denotes the concentration needed to halve the response being measured. By EC50 is commonly meant the midpoint of the concentration-response curve.

For the origin of these results see patent US20130109682A1, “CYCLIC ETHER COMPOUNDS USEFUL AS KINASE INHIBITORS” (NOVARTIS AG, priority 2010, published 2013).
